Measurements: PubChem BioAssay (NCI)
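Values below derive from 48-hour exposures of cells grown in 96-well plates, with endpoints linearly interpolated between the two concentrations bracketing the appropriate inhibition level. The concentration for 50% growth inhibition is given as GI50. TGI: concentration producing complete growth inhibition.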

Legend:
Test in all cases: growth of human tumour cells (NCI), 48 h
OVCAR-5 ovarian = system: OVCAR-5 ovarian
SF-539 CNS = system: SF-539 CNS
SR leukemia = system: SR leukemia
NCI-H522 lung = system: NCI-H522 lung
IGROV1 ovarian = system: IGROV1 ovarian
HS 578T breast = system: HS 578T breast
LOX IMVI melanoma = system: LOX IMVI melanoma
CAKI-1 renal = system: CAKI-1 renal
A498 renal = system: A498 renal
OVCAR-3 ovarian = system: OVCAR-3 ovarian

| SMILES | GI50 (OVCAR-5 ovarian) [µM] | TGI (OVCAR-5 ovarian) [µM] | GI50 (SF-539 CNS) [µM] | TGI (SF-539 CNS) [µM] | GI50 (SR leukemia) [µM] | TGI (SR leukemia) [µM] | GI50 (NCI-H522 lung) [µM] | TGI (NCI-H522 lung) [µM] | GI50 (IGROV1 ovarian) [µM] | TGI (IGROV1 ovarian) [µM] | GI50 (HS 578T breast) [µM] | TGI (HS 578T breast) [µM] | GI50 (LOX IMVI melanoma) [µM] | TGI (LOX IMVI melanoma) [µM] | GI50 (CAKI-1 renal) [µM] | TGI (CAKI-1 renal) [µM] | GI50 (A498 renal) [µM] | TGI (A498 renal) [µM] | GI50 (OVCAR-3 ovarian) [µM] | TGI (OVCAR-3 ovarian) [µM] |
| --- | --- | --- | --- | --- | --- | --- | --- | --- | --- | --- | --- | --- | --- | --- | --- | --- | --- | --- | --- | --- |
| COc1ccc(N2CCN(CC(=O)N3CCN(c4nnc(-c5ccccc5)c(-c5ccccc5)n4)CC3)CC2)cc1 | > 100 | > 100 | 7.71 | > 81.9 | 2.41 | 6.97 | 19.1 | > 73.2 | 43.2 | > 100 | 9.46 | > 100 | 11.6 | > 100 | 11.6 | > 100 | 3.35 | 85.6 | 4.92 | > 93.4 |
| c1ccc(-c2n(Cc3ccc4ccccc4n3)c3ccccc3[n+]2Cc2ccc3ccccc3n2)cc1 | 0.376 | 2 | 0.354 | 1.4 | 0.357 | 2.42 | 0.356 | 1.69 | 0.244 | 1.28 | 0.391 | 2.28 | 0.261 | 1.06 | 1.36 | 3.37 | 0.147 | 1.02 | 0.311 | 1.38 |
| COc1cc(C(=O)/C=C/c2c(-c3ccc(F)cc3)nc3sccn23)cc(OC)c1OC | 1.85 | 4.79 | 1.59 | 3.62 | 1.41 | 5.09 | 4.2 | > 26.2 | 3.49 | – | 2.05 | 6.44 | 1.8 | 5.15 | 0.405 | > 30 | 2.35 | 6.16 | 2.27 | 6.81 |
| COc1ccc(C(=O)Nc2ncc(Cc3ccc(F)cc3)s2)cc1 | 0.406 | 99.6 | 0.0448 | 0.414 | 0.0336 | > 100 | 0.0874 | > 100 | 0.0957 | 97.7 | 0.052 | 34.6 | 0.0673 | > 100 | 0.0446 | 30.7 | 0.0204 | 0.0898 | 0.0346 | 1.32 |
| O=C(Cc1ccc(/C=C/C(=O)c2ncc[nH]2)cc1)Nc1ccc(Br)cc1 | 2.24 | 5.83 | 1.47 | 3.56 | 0.608 | 12.9 | 2.76 | 7.34 | 2.37 | 7.22 | 7.94 | > 16.7 | 0.889 | 3.12 | 2.92 | 8.48 | 4.72 | 13.7 | 0.85 | 3.88 |
| N#Cc1cc2cc3c4c(c2oc1=O)CCCN4CCC3 | – | > 100 | – | > 100 | – | > 100 | – | > 100 | – | > 100 | – | > 100 | – | > 100 | – | > 100 | – | > 100 | – | > 100 |
| Nc1c(C(=O)Nc2cccc3ccccc23)sc2nc3c(cc12)CCCC3 | > 100 | > 100 | 1.45 | > 100 | 0.267 | 6.38 | 0.417 | 4.6 | 2.34 | > 100 | 0.852 | > 100 | 1.75 | > 100 | 5.9 | > 100 | 0.366 | 7.78 | 0.577 | > 100 |
| Clc1ccccc1-c1nc2ccccc2[nH]1 | > 100 | > 100 | > 100 | > 100 | > 100 | > 100 | > 100 | > 100 | 91.7 | > 100 | > 100 | > 100 | > 100 | > 100 | > 100 | > 100 | 59.2 | > 100 | > 100 | > 100 |
| COC(=O)Nc1nc2c(OC)c(OC)c(OC)cc2[nH]1 | 49.6 | > 100 | 18.6 | 73.3 | 3.39 | > 75.7 | 13.3 | 58.1 | 22.1 | > 100 | 30 | > 92.3 | 49 | > 100 | 15.7 | > 100 | 25.5 | > 100 | 15.6 | 49.1 |
| OC(COc1ccc(Cl)cc1Cl)CN1CCCC1 (centres undefined) | – | > 100 | – | > 100 | – | > 100 | – | > 100 | – | > 100 | – | > 100 | – | > 100 | – | > 100 | – | > 100 | – | > 100 |
| CC(C)(C)c1ccc(C(=O)N/N=C/c2ccc(O)cc2O)cc1 | 0.661 | 14.7 | 0.452 | 2.98 | 0.317 | > 100 | 1.2 | 14 | 0.411 | 12.4 | 2.42 | 27.3 | 0.224 | 0.975 | 0.342 | 1.99 | 1.27 | 6.09 | 0.28 | 2.06 |
| CC12C=CC(C)(O1)C1C2c2ccccc2S1(=O)=O (centres undefined) | > 100 | > 100 | 85.4 | > 100 | 15.6 | > 100 | 33.6 | > 100 | 25.1 | 95.3 | 46.2 | > 100 | 46.6 | > 100 | 82 | > 100 | > 100 | > 100 | 52.7 | > 100 |
| COC(=O)[C@]12CC[C@@H](C)[C@H](C)[C@@H]1C1=CC[C@@H]3[C@@]4(C)C(c5ncon5)=C[C@@](C)(CO)C4=CC[C@@]3(C)[C@]1(C)CC2 | 5.2 | 26.8 | 1.97 | 3.89 | 1.55 | 4.21 | 1.71 | 3.57 | 2.47 | 7.19 | 2.52 | 8.03 | 1.62 | 2.97 | 4.06 | 26 | 1.69 | 3.42 | 1.79 | 3.25 |
| Cn1c2ccccc2c2cc(-c3ccccc3)c3c(c21)C(=O)C=CC3=O | – | 35.2 | – | 58.3 | – | 17.5 | – | 34.5 | – | 64.9 | – | 61.7 | – | 34.7 | – | 39.3 | – | 48.7 | – | 31.7 |
| COc1cc2c(cc1OCCCCC(=O)Nc1ccc(-c3nc4ccccc4s3)cc1)N=C[C@@H]1CCCN1C2=O | 3.56 | 11.9 | 1.59 | 3.38 | 0.548 | 9.48 | 0.972 | 2.65 | 0.695 | 2.27 | 2.75 | 5.86 | 1.57 | 2.91 | 2.2 | 5.96 | 1.87 | 4.73 | 1.86 | 8.01 |
| c1ccc(Cn2cc3c(c2)-c2oncc2CC3)cc1 | 2.3 | > 92.4 | 0.461 | 2.9 | 0.31 | 4.34 | 1.89 | 8.13 | 1.27 | > 100 | 0.887 | 10.7 | 1.66 | > 57.9 | 1.97 | > 76.3 | 3.43 | > 92.1 | 0.457 | 2.21 |
| Cc1cc[c-]cc1.Fc1c[c-]c(-c2ccccn2)c(F)c1.N#CCC[PH+](CCC#N)c1ccccc1.[Pt+2] | 3.79 | 19.6 | 2.92 | 10.3 | 2.22 | 10 | 1.96 | 5.58 | 2.89 | 21.9 | 3.39 | 43.5 | 2.26 | 5.18 | 2.7 | 14.1 | 2.18 | 8.5 | 3.26 | 13.1 |
| NC(=O)Nc1ccc2ncnc(Nc3ccc(Cl)cc3)c2c1 | 15.8 | > 95 | 30.7 | > 100 | 21.3 | 75.8 | 6.08 | 36 | 9.06 | 34.3 | 17 | 66.4 | 18.1 | 57.7 | 1.6 | 42.2 | 0.896 | 16.2 | 10.4 | > 83.4 |
| C/C1=C\CC[C@@](C)(O)[C@H]2C[C@H](CC/C(C)=C/CC1)C1(CC1)C(=O)O2 | 31.4 | 80 | 17.1 | 33.5 | 14.1 | 32.6 | 23.1 | 62.9 | 18.9 | 39.7 | 29.9 | 96.5 | 13.6 | 28.6 | 20.7 | 43.3 | 20.1 | 66.2 | 25.2 | 84.7 |
